Entries after “also recorded” stand apart in the source; their conditions may differ.
Key:
Assay type in all cases: biochemical
[1] = Exonuclease activity of Phi29 variants; settings: printed in column Ensemble Extension Activity or in text
[2] = system: template specifying incorporation of a single γ-labeled nucleotide; test: Real time on-surface single molecule detection of γ-labeled nucleotide incorporation; settings: for Activity on Detection System: more signals: number of signals relative to parent enzyme; for Activity on Detection System: Signals detected (timing of appearance) / Activity on Detection System: high ASB signals / Activity on Detection System: long duration signals: relative to parent enzyme
Protocol: Real time “On surface” experiments were performed to characterize the activity of the Phi29 variants on an exemplary single molecule sequencing system (FIGS. 72A and B). Chambered slides were prepared to facilitate injection and multiple experiments data collection from several chambers using a single slide. The template specified incorporation of a single γ-labeled nucleotide. The samples were excited using a 488 nm Argon ion laser at 2.5 mW and the data were collected at 25 ms integration time. Each stream of data was collected for 1500 frames, consecutive streams were collected for ˜5 minutes by moving to new fields of views (FOVs). FRETAN software was used to obtain the donor and acceptor traces.
After trace analysis, the selected signals (with acceptor signal over background greater than 4, i.e., ASN≧4) were characterized by examining attributes including duration, ASN and timing of signal appearance (i.e., start of signals). The variants that are of special interest include Variants 2 and 3.

[3] = system: template specifying incorporation of a single γ-labeled nucleotide followed by a base-labeled nucleotide; test: On-surface single molecule detection, single γ-labeled nucleotide followed by a base-labeled nucleotide; settings: for frequency of γ-signals detected: single γ and base-labeled nucleotide incorporation
Protocol: Similar experiments were performed using a template specifying incorporation of a single γ-labeled nucleotide followed by a base-labeled nucleotide and data were analyzed as described above.
Example sets of signals detected using Phi29 variants over time are shown (FIGS. 72-75). […] Next, considering the appearance of BL-signals, the signals for the parent enzyme (#1) are nicely distributed and follow a Gaussian distribution (peak in the 121-180 second bin), whereas Variant 2's BL-signals appear between 0-120 seconds—again indicating an earlier appearance of signals when Variant 2 is compared with the parent enzyme.

[4] = system: 5′ fluorescein-labeled primer:template duplex; test: Replication fidelity: primer extension with incorrect (non-complementary) gamma-labeled nucleotide; settings: incorrect gamma-labeled nucleotide in lieu of the complementary one
Protocol: To assay the replication fidelity of each mutant Phi29 polymerase protein, primer extensions were carried out in the same manner, except that an incorrect (i.e., non-complementary) gamma-labeled nucleotide was added to the extension mixture in lieu of the complementary nucleotide, and the amount of extended product following extension in presence of the incorrect nucleotide was analyzed.

[5] = system: 5′ fluorescein-labeled primer:template duplex; test: Ensemble primer extension with gamma-labeled dNTP by Phi29 mutant protein; settings: for Ensemble Extension Activity: γ-nucleotide incorporation: relative to parent Phi29 exo(−) D12A/D66A, 0.5 μM or 5 μM gamma-labeled dNTP, 10 seconds to 5 minutes; for extension (FIG. 70C, 70D): ensemble PAGE analyses
Text: Table 1, below, summarizes the ability of each mutant Phi29 polymerase to incorporate gamma-labeled nucleotides (as indicated in the column entitled “Ensemble Extension Activity”), fidelity of replication (as indicated in the column entitled “Fidelity”) and for activity in a single-molecule detected system, as depicted in FIGS. 20-59′ and 69-76 and associated description (see below), and indicated in the last column, entitled “Activity on Detection System.” Each and every mutation introduced into a given Phi29 mutant protein is listed in the column entitled “Mutations”; mutations are designated by the original amino acid/its position/its replacement, e.g., V250A means that valine at position 250 was replaced by alanine by site specific mutagenesis. If two or more amino acid substitutions are made, then each is designated as above and separated by a “/”. The predicted effect of a given mutation on polymerase activity, based on structure-function analysis of Phi29 polymerase, is provided in the column entitled “Expected Effect.” The various Phi29 mutants generated via selective mutagenesis, along with any applicable results of extension studies, fidelity assays and single molecule detection studies using each mutant protein, are collectively summarized in Table 1, below. To perform the extension studies, 330 nM Phi29 mutant protein and 100 nM 5′ fluorescein-labeled primer:template duplex were co-incubated in a solution comprising 50 mM Tris (pH 7.0), 2 mM MnCl2, 2 mM DTT, 0.1% Triton-X-100, 0.01% Tween-20. The reactions were initiated by addition of 0.5 μM or 5 μM of gamma-labeled dNTP, and quenched via addition of 30 mM EDTA at timepoints ranging from 10 seconds to 5 minutes. The reaction products were then separated on a 20% denaturing acrylamide gel and imaged on a Bio-Rad Molecular Imager FX. The intensity of each reaction product was quantified using Bio-Rad Quantity One software. FIGS. 20-59′ depict the results of extension studies conducted using specific Phi29 mutants.

γ-dGTP = test: 7-base homopolymeric extension reactions (FIG. 19B, 19C); settings: for extension under limiting conditions: 30 second to 1 minute extension time
Text: When the aspartic acid at position 456 is mutated, the activity is reduced but still detectable. FIG. […]
Three residues that have been implicated in catalysis of nucleotide incorporation by phi29 DNA polymerase are D458, D456, and V250 (Berman, Kamtekar et al., 2007). […] In one embodiment, D456 is mutated to glutamic acid, thus distorting the active site, but still allowing catalysis due to the presence of the functional group. The backbone of V250 additionally appears to play a role in catalysis; in some embodiments, the chemistry step will be slowed by mutating the V250 residue to an isoleucine or alanine in order to slow the chemistry step.

dG2Oy650 = test: Inc50: nucleotide concentration at which half of the primer is extended one base in sixty seconds; settings: dG2Oy650 in duplicate
Text: In one exemplary embodiment, an alanine was substituted for the valine at position 250. As is seen in FIG. 70C (Variant 5) the rate of extension by this mutant polymerase is decreased relative to wild type. […] To compensate for the reduced extension we combined V250A with several mutations that increase binding efficiency of γ-modified nucleotides. […] As is seen in FIG. 70C, Variant 2, the extension of the V250A mutant is improved through introduction of the E375Y mutation. The mutation V250A was also combined with the mutations E375A/Q380A as well as E375C.

[6] = Initial tests of reaction rate of alpha-phosphate modified dGTP; settings: data not shown

Question: For “N62D: mutant based on wild type Φ29 DNA polymerase [Variant N62D]”, which exonuclease activity [1] is on record?
Answer: Still has exo

Question: With “Parent Enzyme Phi29exo(−) D12A/D66A: Phi29 polymerase with mutations D12A and D66A, SEQ. ID: 3, reduced exonuclease activity” as the compound, how does the “Activity on Detection System: more signals” value (“Activity … more signals” below) [2] read?
Answer: Benchmark

Question: What about the “appearance of BL-signals after injection (window; peak bin for parent)” value [3] of the same compound?
Answer: 121 to 180 s

Question: What about the “frequency of γ-signals detected” value [3] of the same compound?
Answer: few signals are detected

Question: What about the exonuclease activity ([1]; listed as D12A/D66A) of the same compound?
Answer: exo deficient

Question: And the exonuclease activity ([1]; listed as Phi29 exo(−))?
Answer: reduced exonuclease activity

Question: And the “Fidelity (mis-incorporation)” value [4]?
Answer: No mis-

Question: What about the “Ensemble Extension Activity: γ-nucleotide incorporation” value [5] of the same compound?
Answer: Benchmark

Question: What does the source list for “D456N: Phi29 exo(−) (D12A/D66A) polymerase mutant [Variant D456N]”?
Answer: Activity on Detection System: more signals [2]: Fewer signals.; extension under limiting conditions (γ-dGTP; 1 μM γ-dGTP): significant impact; extension under limiting conditions (γ-dGTP; 1 μM γ-dGTP, listed as D456 to an asparagine): significantly reduced extension; extension under permissive conditions (γ-dGTP; 5 minutes with 5 μM nucleotides): somewhat reduced extension; Ensemble Extension Activity: γ-nucleotide incorporation [5]: Impaired

Question: For “V250A/E375A/Q380A: Phi29 exo(−) (D12A/D66A) polymerase mutant”, which “Activity … more signals” value [2] is on record?
Answer: 3x more signals.

Question: What about the “Activity on Detection System: Signals detected (timing of appearance)” value [2] of the same compound?
Answer: earlier.

Question: And the “Activity on Detection System: high ASB signals” value [2]?
Answer: More high ASB signals.

Question: What about the “Activity on Detection System: long duration signals” value [2] of the same compound?
Answer: More long duration

Question: And the “Fidelity (mis-incorporation)” value [4]?
Answer: appears to remain intact; also recorded: No mis-

Question: What about the “Ensemble Extension Activity: γ-nucleotide incorporation” value [5] of the same compound?
Answer: Decreased rate

Question: Which Inc50 (dG2Oy650) does the source give for “Phi29: Phi29 polymerase benchmark of the Inc50 comparison in Table 1; probably the exo(−) parent [reference compound]” here?
Answer: (Phi29 = 0.14)

Question: For “T15I: mutant based on wild type Φ29 DNA polymerase [Variant T15I]”, which exonuclease activity [1] is on record?
Answer: Still has exo

Question: Which exonuclease activity [1] does the source give for “D169A: Phi29 polymerase variant generated by total DNA synthesis [Variant D169A]” here?
Answer: exo deficient

Question: With “D12A/D66A/D169A: Phi29 polymerase exo minus variant” as the compound, how does the exonuclease activity [1] read?
Answer: exo deficient

Question: With `BP(=O)(OCC1OC(n2cnc3c(=O)[nH]c(N)nc32)CC1O)OP(=O)(O)OP(=O)(O)O` (stereo not drawn) [[alpha]-P-borano-dGTP] as the compound, how does the “reduction of reaction rate as compared to the natural counterpart” value [6] read?
Answer: 1.32 fold

Question: For “Q380A: Phi29 exo(−) (D12A/D66A) polymerase mutant [Variant Q380A]”, which “Activity … more signals” value [2] is on record?
Answer: 2.5x more signals.

Question: What about the “Fidelity (mis-incorporation)” value [4] of the same compound?
Answer: No mis-

Question: What about the “Ensemble Extension Activity: γ-nucleotide incorporation” value [5] of the same compound?
Answer: More efficient

Question: For “V250A: Phi29 exo(−) (D12A/D66A) polymerase mutant [Variant V250A]”, which “Activity … more signals” value [2] is on record?
Answer: Fewer signals.

Question: What about the Inc50 (dG2Oy650) of the same compound?
Answer: remains relatively unaffected

Question: And the “extension within a minute” value (γ-dGTP; 1 μM γ-dGTP)?
Answer: at least 5 bases

Question: And the “extension under limiting conditions” value (γ-dGTP; 1 μM γ-dGTP)?
Answer: visibly slowing down extension

Question: What about the “extension (FIG. 70C, 70D)” value ([5]; γ-nucleotides) of the same compound?
Answer: decreased

Question: What about the “Ensemble Extension Activity: γ-nucleotide incorporation” value [5] of the same compound?
Answer: Decreased rate

Question: Which “Activity … more signals” value [2] does the source give for “E375A: Phi29 exo(−) (D12A/D66A) polymerase mutant [Variant E375A]” here?
Answer: 3x more signals.

Question: And the Inc50 (dG2Oy650)?
Answer: reduced

Question: And the “Fidelity (mis-incorporation)” value [4]?
Answer: No mis-

Question: And the “extension (FIG. 70C, 70D)” value ([5]; γ-nucleotides)?
Answer: increased extension

Question: What about the “Ensemble Extension Activity: γ-nucleotide incorporation” value [5] of the same compound?
Answer: More efficient

Question: What does the source list for “V250A/E375C: Phi29 exo(−) (D12A/D66A) polymerase mutant”?
Answer: Activity on Detection System: more signals [2]: 3.5x more signals.; Activity on Detection System: Signals detected (timing of appearance) [2]: earlier.; Activity on Detection System: long duration signals [2]: More long duration; Fidelity (mis-incorporation) [4]: appears to remain intact; also recorded: No mis-; Ensemble Extension Activity: γ-nucleotide incorporation [5]: Decreased rate

Question: For `Nc1nc2c(ncn2[C@H]2C[C@H](O)[C@@H](COP(O)(=S)OP(=O)(O)OP(=O)(O)O)O2)c(=O)[nH]1` (stereo partly drawn) [[alpha]-P-thiol-dGTP], which “reduction of reaction rate as compared to the natural counterpart” value [6] is on record?
Answer: 1.61 fold

Question: Which “Activity … more signals” value [2] does the source give for “D456E: Phi29 exo(−) (D12A/D66A) polymerase mutant [Variant D456E]” here?
Answer: Fewer signals.

Question: And the “extension under limiting conditions” value (γ-dGTP; 1 μM γ-dGTP)?
Answer: significant impact

Question: And the “Ensemble Extension Activity: first base extension” value ([5]; γ-nucleotides)?
Answer: Increased first

Question: For “V250A/E375Y: Phi29 exo(−) (D12A/D66A) polymerase mutant”, which “Activity … more signals” value [2] is on record?
Answer: 3x more signals.

Question: And the “Activity on Detection System: high ASB signals” value [2]?
Answer: More high ASB signals.

Question: And the “Activity on Detection System: long duration signals” value [2]?
Answer: More long duration

Question: What about the “ASN of signals (population of molecules)” value ([2]; signals with ASN≧4) of the same compound?
Answer: higher ASN

Question: And the “duration of signals (population of molecules)” value ([2]; signals with ASN≧4)?
Answer: longer duration

Question: What about the “frequency of events detected” value ([2]; signals with ASN≧4) of the same compound?
Answer: higher frequency of events detected

Question: What about the “appearance of BL-signals after injection (window; peak bin for parent)” value [3] of the same compound?
Answer: 0 to 120 s

Question: What about the “time after injection in which most of the γ-signals are detected” value [3] of the same compound?
Answer: ≤ 60 s

Question: And the “frequency of γ-signals detected” value [3]?
Answer: higher frequency

Question: And the “Fidelity (mis-incorporation)” value [4]?
Answer: appears to remain intact; also recorded: No mis-

Question: What about the “extension (FIG. 70C, 70D)” value ([5]; γ-nucleotides, listed as 2) of the same compound?
Answer: slowed in incorporation

Question: What about the “extension (FIG. 70C, 70D)” value ([5]; γ-nucleotides, listed as Variant 2) of the same compound?
Answer: improved

Question: And the “Ensemble Extension Activity: γ-nucleotide incorporation” value [5]?
Answer: Decreased rate

— US20110165652A1, “COMPOSITIONS, METHODS AND SYSTEMS FOR SINGLE MOLECULE SEQUENCING” (LIFE TECHNOLOGIES CORPORATION, priority 2008, published 2011)
